Assay results as given in patent publication US10165775B2, “Pesticidal compositions and processes related thereto” (Dow AgroSciences LLC, priority 2011, dated 2019).

Tests used:
[1] = tested on: Green Peach Aphid (GPA) (Myrzus persicae) (MYZUPE); assay: Bioassay on green peach aphid (GPA), foliar spray on cabbage seedlings; type: in vivo; settings: Myzus persicae, 72 h, 200 ppm foliar spray, graded after three days, Abbott corrected % control, read-out: MYZUPE % Ctrl @ 200 ppm
Procedure: Certain molecules disclosed in this document were tested against GPA using procedures described in the following example. In the reporting of the results, “Table 3: GPA (MYZUPE) and sweetpotato whitefly-crawler (BEMITA) Rating Table” was used (See Table Section).
Cabbage seedlings grown in 3-inch pots, with 2-3 small (3-5 cm) true leaves, were used as test substrate. The seedlings were infested with 20-50 GPA (wingless adult and nymph stages) one day prior to chemical application. Four pots with individual seedlings were used for each treatment. Test compounds (2 mg) were dissolved in 2 mL of acetone/methanol (1:1) solvent, forming stock solutions of 1000 ppm test compound. The stock solutions were diluted 5× with 0.025% Tween 20 in H2O to obtain the solution at 200 ppm test compound. A hand-held aspirator-type sprayer was used for spraying a solution to both sides of […] leaves until runoff. Reference plants (solvent check) were sprayed with the diluent only containing 20% by volume of acetone/methanol (1:1) solvent. Treated plants were held in a holding room for three days at approximately 25° C. and ambient relative humidity (RH) prior to grading. Evaluation was conducted by counting the number of live aphids per plant under a microscope. Percent Control was measured by using Abbott's correction formula (W. S. Abbott. “A Method of Computing the Effectiveness of an Insecticide” J. Econ. Entomol. 18 (1925), pp. 265-267) as follows. Corrected % Control=100*(X−Y)/X • where • X=No. of live aphids on solvent check plants and • Y=No. of live aphids on treated plants
Biological Data for GPA (MYZUPE) and sweetpotato whitefly-crawler (BEMITA)” (See Table Section).

[2] = tested on: Sweetpotato whitefly-crawler (Bemisia tabaci) (BEMITA); assay: Insecticidal test for sweetpotato whitefly-crawler in foliar spray assay on cotton plants; type: in vivo; settings: 200 ppm foliar spray, graded after 8-9 days, Abbott corrected % control, read-out: BEMITA % Ctrl @ 200 ppm
Procedure: Cotton plants grown in 3-inch pots, with 1 small (3-5 cm) true leaf, were used as test substrate. The plants were placed in a room with whitefly adults. Adults were allowed to deposit eggs for 2-3 days. After a 2-3 day egg-laying period, plants were taken from the adult whitefly room. Adults were blown off leaves using a hand-held Devilbiss sprayer (23 psi). Plants with egg infestation (100-300 eggs per plant) were placed in a holding room for 5-6 days at 82° F. and 50% RH for egg hatch and crawler stage to develop. Four cotton plants were used for each treatment. Compounds (2 mg) were dissolved in 1 mL of acetone solvent, forming stock solutions of 2000 ppm. The stock solutions were diluted 10× with 0.025% Tween 20 in H2O to obtain a test solution at 200 ppm. A hand-held Devilbiss sprayer was used for spraying a solution to both sides of cotton leaf until runoff. Reference plants (solvent check) were sprayed with the diluent only. Treated plants were held in a holding room for 8-9 days at approximately 82° F. and 50% RH prior to grading. Evaluation was conducted by counting the number of live nymphs per plant under a microscope. Insecticidal activity was measured by using Abbott's correction formula and presented in “Table 4. Biological Data for GPA (MYZUPE) and sweetpotato whitefly-crawler (BEMITA)” (see column “BEMITA”): Corrected % Control=100*(X−Y)/X • where X=No. of live nymphs on solvent check plants • Y=No. of live nymphs on treated plants Pesticidally Acceptable Acid Addition Salts, Salt Derivatives, Solvates, Ester Derivatives, Polymorphs, Isotopes and Radionuclides

melting point [°C] | SMILES | pest or weed control at 200 ppm [1] [%] | pest or weed control at 200 ppm [2] [%]
190 to 193 | CSCC(C)(C)C(=O)N(C)c1cc(-c2cccnc2)nn1C [Compound 3] |  | 
131.5 to 133 | Cc1nn(-c2cncc(F)c2)cc1NC(=O)OC(C)(C)C [Compound 111, tert-butyl 1-(5-fluoropyridin-3-yl)-3-methyl-1H-pyrazol-4-ylcarbamate] |  | 
83 to 86 | CCN(C(=O)CC(OC)(C(F)(F)F)C(F)(F)F)c1cn(-c2cccnc2)nc1C [Compound 276, N-ethyl-4,4,4-trifluoro-3-methoxy-N-(3-methyl-1-(pyridin-3-yl)-1H-pyrazol-4-yl)-3-(trifluoromethyl)butanamide] |  | 
156.5 to 158 | CC(C)(C)OC(=O)Nc1cn(-c2cncc(F)c2)nc1C1CC1 [Compound 434, tert-butyl (3-cyclopropyl-1-(5-fluoropyridin-3-yl)-1H-pyrazol-4-yl)carbamate] |  | 
144 to 146 | CC(C)C(=O)Nc1cn(-c2cncc(F)c2)nc1CO [Compound 435, N-(1-(5-fluoropyridin-3-yl)-3-(hydroxymethyl)-1H-pyrazol-4-yl)isobutyramide] |  | 
140 to 142 | CC(C)C(=O)Nc1cn(-c2cncc(F)c2)nc1C=O [Compound 560, N-(1-(5-fluoropyridin-3-yl)-3-formyl-1H-pyrazol-4-yl)isobutyramide] |  | 
172 to 177 | CC(C)C(=O)Nc1cn(-c2cncc(F)c2)nc1CCl [Compound 561, N-(3-(chloromethyl)-1-(5-fluoropyridin-3-yl)-1H-pyrazol-4-yl)isobutyramide] |  | 
73 to 75 | C#CCN(C(=O)OC(C)(C)C)c1cn(-c2cccnc2)nc1C [Compound 596] | 80 to 100 | 80 to 100
 | C#CCN(C(=O)CCC(F)(F)F)c1cn(-c2cccnc2)nc1C [Compound 597] | 80 to 100 | 0 to 80
 | C#CCN(C(=O)CCSC)c1cn(-c2cccnc2)nc1C [Compound 598] | 80 to 100 | 0 to 80
 | C#CCN(C(=O)C(C)CSC)c1cn(-c2cccnc2)nc1C (stereo not drawn) [Compound 599] | 80 to 100 | 0 to 80
89 to 90 | C#CCN(C(=O)C(C)C)c1cn(-c2cccnc2)nc1C [Compound 600] | 80 to 100 | 0 to 80
81 to 82 | C#CCN(C(=O)OC(C)(C)C)c1cn(-c2cncc(F)c2)nc1C [Compound 601, tert-butyl 1-(5-fluoropyridin-3-yl)-3-methyl-1H-pyrazol-4-yl(prop-2-ynyl)carbamate] | 80 to 100 | 80 to 100
 | C#CCN(C(=O)C(C)CSC)c1cn(-c2cncc(F)c2)nc1C (stereo not drawn) [Compound 602] | 80 to 100 | 80 to 100
99 to 100 | C#CCN(C(=O)C(C)C)c1cn(-c2cncc(F)c2)nc1C [Compound 603] | 80 to 100 | 80 to 100
 | C#CCN(C(=O)CCC(F)(F)F)c1cn(-c2cncc(F)c2)nc1C [Compound 604] | 80 to 100 | 80 to 100
 | C#CCN(C(=O)CCSC)c1cn(-c2cncc(F)c2)nc1C [Compound 605, N-(1-(5-fluoropyridin-3-yl)-3-methyl-1H-pyrazol-4-yl)-3-(methylthio)-N-(prop-2-ynyl)propanamide] | 80 to 100 | 80 to 100
 | C#CCN(C(=O)OC(C)(C)C)c1cn(-c2cccnc2)nc1Cl [Compound 606, tert-butyl (3-chloro-1-(pyridin-3-yl)-1H-pyrazol-4-yl)(prop-2-yn-1-yl)carbamate] | 80 to 100 | 80 to 100

melting point [°C] | SMILES | pest or weed control at 200 ppm [1] [%] | pest or weed control at 200 ppm [2] [%]
 | C#CCN(C(=O)CCSC)c1cn(-c2cccnc2)nc1Cl [Compound 607] | 80 to 100 | 80 to 100
 | C#CCN(C(=O)C(C)CSC)c1cn(-c2cccnc2)nc1Cl (stereo not drawn) [Compound 608] | 80 to 100 | 80 to 100
 | C#CCN(C(=O)CCC(F)(F)F)c1cn(-c2cccnc2)nc1Cl [Compound 609] | 80 to 100 | 80 to 100
98 to 99 | C#CCN(C(=O)C(C)C)c1cn(-c2cccnc2)nc1Cl [Compound 610] | 80 to 100 | 80 to 100
 | C#CCN(C(=O)C(C)SC)c1cn(-c2cccnc2)nc1Cl (stereo not drawn) [Compound 611, N-(3-chloro-1-(pyridin-3-yl)-1H-pyrazol-4-yl)-2-(methylthio)-N-(prop-2-yn-1-yl)propanamide] | 80 to 100 | 80 to 100
65 to 68 | C#CCN(C(=O)CSC)c1cn(-c2cccnc2)nc1Cl [Compound 612] | 80 to 100 | 80 to 100
 | C#CCN(C(=O)CC(SC)C(F)(F)F)c1cn(-c2cccnc2)nc1Cl (stereo not drawn) [Compound 613, N-(3-chloro-1-(pyridin-3-yl)-1H-pyrazol-4-yl)-4,4,4-trifluoro-3-(methylthio)-N-(prop-2-yn-1-yl)butanamide] | 80 to 100 | 80 to 100
 | C#CCN(C(=O)CCC(C)(F)F)c1cn(-c2cccnc2)nc1Cl [Compound 614] | 80 to 100 | 80 to 100
 | C#CCN(C(=O)CCC(F)(F)C(F)(F)F)c1cn(-c2cccnc2)nc1Cl [Compound 615] | 0 to 80 | 80 to 100
109 to 112 | C#CCN(C(=O)CC(SC)C1CC1)c1cn(-c2cccnc2)nc1Cl (stereo not drawn) [Compound 619] | 80 to 100 | 80 to 100
 | C#CCN(C(=O)C[S+](C)[O-])c1cn(-c2cccnc2)nc1Cl (stereo not drawn) [Compound 620] | 80 to 100 | 80 to 100
 | C#CCN(C(=O)CS(C)(=O)=O)c1cn(-c2cccnc2)nc1Cl [Compound 621] | 80 to 100 | 80 to 100
 | C#CCN(C(=O)C(SC)C(=O)CSC)c1cn(-c2cccnc2)nc1Cl (stereo not drawn) [Compound 622] | 80 to 100 | 80 to 100
 | C#CCN(C(=O)CN(C)S(C)(=O)=O)c1cn(-c2cccnc2)nc1Cl [Compound 623, N-(3-chloro-1-(pyridin-3-yl)-1H-pyrazol-4-yl)-2-(N-methylmethylsulfonamido)-N-(prop-2-yn-1-yl)acetamide] | 80 to 100 | 80 to 100
68 to 70 | C#CCN(C(=O)CCSC(c1ccccc1)(c1ccccc1)c1ccccc1)c1cn(-c2cccnc2)nc1Cl [Compound 624] |  | 
 | C#CCN(C(=O)CCSCCC(F)(F)F)c1cn(-c2cccnc2)nc1Cl [Compound 626] | 80 to 100 | 80 to 100
 | C#CCN(C(=O)CCSCCC(F)(F)F)c1cn(-c2cccnc2)nc1C [Compound 627, N-(3-methyl-1-(pyridin-3-yl)-1H-pyrazol-4-yl)-N-(prop-2-yn-1-yl)-3-((3,3,3-trifluoropropyl)thio)propanamide] | 80 to 100 | 80 to 100
